One assay deals with granulation tissue. As to the kind of experiment: Subcutaneous Ivalon sponge implantation, histological analysis of granulation tissue formation. Type of assay: in vivo, Sprague-Dawley rats. The settings on record: for Sponge: score on the 0-4 scale, tested in a similar manner to collagen/sucrose octasulfate, potassium salts. As for the experimental part:
By means of subcutaneous implantation of Ivalon sponges the phase of granulation tissue formation in the repair process can be evaluated. Following a vigorous cleanup procedure the sponge material evokes only minimal inflammatory response. Sterile sponges prepared as set forth in Example 12 were injected with a 50 µl suspension of collagen/sucrose octasulfate suspension prepared as in Example 12. […] The sponges were surgically implanted into 350-500 g, male Sprague-Dawley rats. Before the implantation procedure three rats were anesthetized and their dorsal surfaces shaved and wiped with Predodyne (West Chemical Products, Lynbrook, N.Y.). Six 6 mm incisions were cut in groups of two (one on each side of the vertebral column rostrally, centrally and caudally), spaced equi-distant from each other between the pectoral and pelvic girdles on the dorsal surface. At each incision a pocket was made between the panniculus carnosus and the dermis and two sponges inserted into it, one rostrally and the other caudally; a total of 12 sponges were thus implanted in each animal. The position of each test preparation was alternated between the rostral, central and caudal positions to control the variation due to anatomical location. The incisions were closed with 11-mm Michel wound clips (Propper, Long Island City, N.Y.). Seven days following implantation the animals were sacrificed and the sponges surgically removed with their adhered connective tissue capsules. Controls, sponges injected with either PBS or collagen only were treated in a similar manner. In all, approximately 120 sponges per group were used in the study and randomly selected for biochemical and histologic analysis. The sponges were fixed in formalin and embedded in either plastic or Paraplast following dehydration. Sections were stained with hemotocylin and eosin, trichrome, silver or PAS. […] Mesenchymal cell infiltration was also scored on a predetermined scale from 0-4. […] Although the whole sponge area was used for analysis we noted that the most striking differences between the various treatments were evident in the center of the sponge. Therefore, the histologic appearance of the central zone was selected for presentation.

A further assay relates to rabbit corneas. As to the kind of experiment: Rabbit cornea assay for angiogenesis. The settings on record: grade on scale 0-4+ in rabbit cornea; potassium salts. The assay is classed as in vivo. How it is done:
This may offer an explanation for the dense vascular bed that characterized the granulation tissue in the in-vivo experiments. Sucrose octasulate at concentrations of 0.1 to 100 µg/ml was encapsulated in Hydron and implanted in rabbit corneas. The method used was that described in Surgery 96:48-54, 1984. The […] solution (sucrose octasulfate or PBS) was mixed with an equal volume of Hydron and allowed to polymerize under reduced pressure. […] Eyes were evaluated at days 1 through 14 post-implantation for gross inflammation and, as described by Hunt, et al, in Surgery 96:48-54, 1984, for angiogenesis. Corneal neovascularization was graded on a scale of 0-4+ (integers only being assigned). Zero denotes a normal eye with no ingrowth on limbal vessels into the corneal stroma; 1+, up to 1 mm of capillary ingrowth in a localized arc adjacent to the injection site; 2+, […] ingrowth; 3+, 2-3 mm ingrowth; and 4+, 3 mm or greater ingrowth in a wide arc along the limbal edge toward the injection site. […] To ascertain that the observed angiogenesis was not secondary to an inflammatory process some eyes with a positive response were removed and stained with H&E and a nonspecific esterase stain as early as two days after implantation.

The test system of a further assay is fibroblasts. As to the kind of experiment: Cell migration assay (Boyden chamber). The assay is classed as cell-based. Details: Chemokinesis: scale not given here. The note with it: score, Boyden chamber, scale not defined; potassium salts. As for the experimental part: Stimulation of directed movement of fibroblasts was assayed as described by Banda M.J., Knighton D.R., Hunt T.K., Werb A., Isolation of a nonmitogenic angiogenesis factor from wound fluid, Proc. Natl. Acad. Sci. 79:7773-7777, 1982. Briefly, solutions of sucrose octasulfate in PBS in concentrations resulting in final concentrations ranging from 10 -² to 10 -⁷ g/ml diluted to a final volume of 300 µℓ in DMEM supplemented with 10 percent rabbit platelet-poor plasma serum were placed in the bottom of Boyden blind-well chambers. Polylysine-coated, 5 µ -pore diameter, polycarbonate filters (Nucleopore) were placed over the test solution and 1.75-3.0 x 10⁶ fibroblasts suspended in DMEM added to the top compartment. The chambers were incubated for two and a half hours at 37 °C,
At the end of incubation of the top filter was fixed, stained and evaluated by counting the number of cells that had migrated to the bottom side of the filter. For each experiment five random fields per filter and at least 15 filters per each concentration of sucrose octasulfate were conducted. […]

Consider “potassium melezitose persulfate [Melezitose Undecasulfate]”, for which the Sponge in the assay on granulation tissue was 1. For the same molecule, the Angiogenesis in the assay with rabbit corneas stood at 1. In addition, the Chemokinesis in the assay on fibroblasts is 1.

In the case of “potassium stachyose persulfate [Stachyose Tetradecasulfate]”, the Sponge in the assay on granulation tissue is on record as 2.5. For the same molecule, the Angiogenesis in the assay with rabbit corneas is recorded as 2.5. The Chemokinesis in the assay with fibroblasts is 2.0.

As for `O=C[C@@H](OS(=O)(=O)[O-])[C@@H](OS(=O)(=O)[O-])[C@H](OS(=O)(=O)[O-])[C@@H](COS(=O)(=O)[O-])OS(=O)(=O)[O-].[K+].[K+].[K+].[K+].[K+]` [Mannose Pentasulfate, potassium mannose pentasulfate], the Sponge with granulation tissue is reported as 3.0. Also, the Angiogenesis in the assay on rabbit corneas is recorded as 3.0. Also, the Chemokinesis in the assay on fibroblasts amounted to 4.0.

Turning to `O=S(=O)([O-])OC[C@H]1O[C@@H](O[C@H]2[C@H](OS(=O)(=O)[O-])[C@@H](OS(=O)(=O)[O-])[C@H](OS(=O)(=O)[O-])O[C@@H]2COS(=O)(=O)[O-])[C@H](OS(=O)(=O)[O-])[C@@H](OS(=O)(=O)[O-])[C@H]1OS(=O)(=O)[O-].[K+].[K+].[K+].[K+].[K+].[K+].[K+].[K+]` [Beta-Lactose Octasulfate, potassium β -lactose octasulfate], in the assay on granulation tissue, the Sponge turned out to be 3.0. Besides, in the assay on rabbit corneas, the Angiogenesis is listed as 3.0. Also, the Chemokinesis with fibroblasts came out at 3.0.

On to sucralfate [reference compound], for which the “histologic response in sponge” value with granulation tissue (similar tests with sucralfate) is on record as “strong inflammatory response with no neovascularization or fibroblast migration”.

In the case of `O=S(=O)([O-])OC[C@H]1O[C@H](O[C@H]2O[C@H](COS(=O)(=O)[O-])[C@@H](OS(=O)(=O)[O-])[C@H](OS(=O)(=O)[O-])[C@H]2OS(=O)(=O)[O-])[C@H](OS(=O)(=O)[O-])[C@@H](OS(=O)(=O)[O-])[C@@H]1OS(=O)(=O)[O-].[K+].[K+].[K+].[K+].[K+].[K+].[K+].[K+]` [Trehalose Octasulfate, potassium trehalose octasulfate], the Sponge in the assay on granulation tissue stood at 3.0. Further, in the assay on rabbit corneas, the Angiogenesis amounted to 3.0. For the same molecule, in the assay on fibroblasts, the Chemokinesis came to 2.0.

For the molecule potassium sucrose trisulfate, the Sponge with granulation tissue stood at 2.5. Further, the Angiogenesis with rabbit corneas is listed as 2.0. Also, the Chemokinesis with fibroblasts came to 3.0.

Consider `O=S(=O)(O)OC[C@H]1O[C@@H](OS(=O)(=O)O)[C@H](OS(=O)(=O)O)[C@@H](OS(=O)(=O)O)[C@@H]1O[C@H]1O[C@H](COS(=O)(=O)O)[C@@H](OS(=O)(=O)O)[C@H](OS(=O)(=O)O)[C@H]1OS(=O)(=O)O` [Maltose Octasulfate, potassium maltose octasulfate], for which, in the assay with granulation tissue, the Sponge was 3.0. For the same molecule, in the assay with rabbit corneas, the Angiogenesis is listed as 3.0. Also, in the assay on fibroblasts, the Chemokinesis is reported as 3.0.

As for `O=C[C@H](O)[C@@H](O)[C@H](O)[C@H](O)COS(=O)(=O)[O-].[K+]` [Glucose-6-Sulfate, potassium D-glucose-6-sulfate, reference compound], the Sponge with granulation tissue worked out at 1. The Angiogenesis with rabbit corneas is 1. The Chemokinesis in the assay on fibroblasts turned out to be 1.

As to `O=C[C@H](OS(=O)(=O)[O-])[C@@H](OS(=O)(=O)[O-])[C@H](OS(=O)(=O)[O-])[C@@H](COS(=O)(=O)[O-])OS(=O)(=O)[O-].[K+].[K+].[K+].[K+].[K+]` [Glucose Pentasulfate, potassium glucose pentasulfate], in the assay with granulation tissue, the Sponge was found to be 2.5. Moreover, in the assay with rabbit corneas, the Angiogenesis amounted to 2.0. Besides, the Chemokinesis in the assay on fibroblasts was determined as 3.0.

For the origin of these results see patent EP0230023B1, “Pharmaceutical compositions for the enhancement of wound healing” (MARION MERRELL DOW INC., priority 1985, dated 1987).
